Measurements published in ChEMBL document CHEMBL1147772, “The identification of potent and selective imidazole-based inhibitors of B-Raf kinase” (Bioorg Med Chem Lett, 2006).
pIC50, pKd: −log10 of the molar value.

Experiments:
[1] = target: T1, Serine/threonine-protein kinase B-raf (Homo sapiens, UniProt P15056)
Description: Binding affinity at bRaf kinase in fluorescent ligand displacement assay

[2] = target: T1, Serine/threonine-protein kinase B-raf; remark: listed apart in the source
Description: Inhibition bRaf kinase activity

[3] = target: Casein kinase II (Homo sapiens) (UniProt P67870+P68400+P19784); assay: Inhibition of CK2 activity at 10 uM; assay type: protein-complex assay
[4] = target: Glycogen synthase kinase-3 beta (Homo sapiens) (UniProt P49841); assay: Inhibition of GSK3-beta activity at 10 uM
[5] = target: Mitogen-activated protein kinase 8 (Homo sapiens) (UniProt P45983); assay: Inhibition of JNK1 activity at 10 uM
[6] = target: Tyrosine-protein kinase Lck (Homo sapiens) (UniProt P06239); assay: Inhibition of Lck activity at 10 uM
[7] = target: Mitogen-activated protein kinase 1 (Homo sapiens) (UniProt P28482); assay: Inhibition of MAPK2 activity at 10 uM
[8] = target: MAP kinase-activated protein kinase 2 (Homo sapiens) (UniProt P49137); assay: Inhibition of MAPKAPK2 activity at 10 uM
[9] = target: Dual specificity mitogen-activated protein kinase kinase 1 (Homo sapiens) (UniProt Q02750); assay: Inhibition of MEK1 activity at 10 uM
[10] = target: Ribosomal protein S6 kinase alpha-5 (Homo sapiens) (UniProt O75582); assay: Inhibition of MSK1 activity at 10 uM
[11] = target: Ribosomal protein S6 kinase (P70S6K) (Homo sapiens) (UniProt Q9UBS0+P23443); assay: Inhibition of p70S6K activity at 10 uM; assay type: protein-complex assay
[12] = target: RAC-alpha serine/threonine-protein kinase (Homo sapiens) (UniProt P31749); assay: Inhibition of PKBalpha activity at 10 uM
[13] = target: Phosphorylase kinase (Homo sapiens) (UniProt P15735+P46020+P46019+Q93100+Q16816); assay: Inhibition of phosphorylase kinase activity at 10 uM; assay type: protein-complex assay
[14] = target: cAMP-dependent protein kinase (PKA) (Homo sapiens) (UniProt P22694+P17612+P22612); assay: Inhibition of PKA activity at 10 uM; assay type: protein assay
[15] = target: Protein kinase C alpha type (Homo sapiens) (UniProt P17252); assay: Inhibition of PKCalpha activity at 10 uM
[16] = target: MAP kinase-activated protein kinase 5 (Homo sapiens) (UniProt Q8IW41); assay: Inhibition of PRAK activity at 10 uM
[17] = target: Rho-associated protein kinase 2 (Homo sapiens) (UniProt O75116); assay: Inhibition of ROCK2 activity at 10 uM
[18] = target: Mitogen-activated protein kinase 11 (Homo sapiens) (UniProt Q15759); assay: Inhibition of p38-beta MAPK activity at 10 uM
[19] = target: Mitogen-activated protein kinase 12 (Homo sapiens) (UniProt P53778); assay: Inhibition of p38-gamma MAPK activity at 10 uM
[20] = target: Mitogen-activated protein kinase 13 (Homo sapiens) (UniProt O15264); assay: Inhibition of p38delta MAPK activity at 10 uM
[21] = target: Serine/threonine-protein kinase Sgk1 (Homo sapiens) (UniProt O00141); assay: Inhibition of SGK activity at 10 uM
[22] = target: AMP-activated protein kinase, AMPK (Homo sapiens) (UniProt P54646+O43741+P54619+Q9UGJ0+Q9Y478+Q13131+Q9UGI9); assay: Inhibition of AMPK activity at 10 uM; assay type: protein-complex assay
[23] = target: Serine/threonine-protein kinase Chk1 (Homo sapiens) (UniProt O14757); assay: Inhibition of CHK1 activity at 10 uM
Serine/threonine-protein kinase Chk1 (Homo sapiens), sequence (O14757 whole entry): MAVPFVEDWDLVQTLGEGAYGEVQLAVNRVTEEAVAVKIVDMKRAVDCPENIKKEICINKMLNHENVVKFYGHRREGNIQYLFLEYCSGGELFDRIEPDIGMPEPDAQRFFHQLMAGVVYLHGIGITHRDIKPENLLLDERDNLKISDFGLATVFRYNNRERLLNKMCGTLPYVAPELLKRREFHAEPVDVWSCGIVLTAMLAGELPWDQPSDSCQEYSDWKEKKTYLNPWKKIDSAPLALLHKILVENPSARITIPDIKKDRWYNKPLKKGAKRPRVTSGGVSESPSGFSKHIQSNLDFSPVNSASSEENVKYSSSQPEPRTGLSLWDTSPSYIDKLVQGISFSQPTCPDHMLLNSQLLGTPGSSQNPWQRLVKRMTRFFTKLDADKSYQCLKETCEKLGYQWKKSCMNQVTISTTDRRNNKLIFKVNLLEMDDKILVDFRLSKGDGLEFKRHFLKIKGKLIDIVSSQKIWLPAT

T1 sequence (P15056 whole entry): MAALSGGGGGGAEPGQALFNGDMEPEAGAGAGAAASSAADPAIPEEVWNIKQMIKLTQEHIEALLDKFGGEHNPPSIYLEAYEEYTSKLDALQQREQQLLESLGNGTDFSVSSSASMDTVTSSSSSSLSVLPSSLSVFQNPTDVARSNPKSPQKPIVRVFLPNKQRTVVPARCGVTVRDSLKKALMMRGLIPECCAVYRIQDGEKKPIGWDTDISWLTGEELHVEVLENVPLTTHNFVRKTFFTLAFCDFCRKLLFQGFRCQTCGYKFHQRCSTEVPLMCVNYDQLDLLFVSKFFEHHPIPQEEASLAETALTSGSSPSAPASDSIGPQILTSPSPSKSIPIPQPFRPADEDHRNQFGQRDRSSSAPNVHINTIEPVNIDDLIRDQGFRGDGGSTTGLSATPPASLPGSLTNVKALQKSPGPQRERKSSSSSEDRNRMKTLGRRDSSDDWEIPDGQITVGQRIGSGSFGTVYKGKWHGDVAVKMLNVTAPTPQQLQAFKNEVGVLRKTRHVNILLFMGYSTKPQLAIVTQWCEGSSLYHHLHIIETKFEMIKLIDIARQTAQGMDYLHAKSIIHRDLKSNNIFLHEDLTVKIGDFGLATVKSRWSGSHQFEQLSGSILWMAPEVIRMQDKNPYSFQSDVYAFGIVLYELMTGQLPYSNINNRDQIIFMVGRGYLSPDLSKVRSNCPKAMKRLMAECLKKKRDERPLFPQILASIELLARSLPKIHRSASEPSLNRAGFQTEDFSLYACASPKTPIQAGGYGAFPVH
Glycogen synthase kinase-3 beta (Homo sapiens), sequence (P49841 whole entry, looked up): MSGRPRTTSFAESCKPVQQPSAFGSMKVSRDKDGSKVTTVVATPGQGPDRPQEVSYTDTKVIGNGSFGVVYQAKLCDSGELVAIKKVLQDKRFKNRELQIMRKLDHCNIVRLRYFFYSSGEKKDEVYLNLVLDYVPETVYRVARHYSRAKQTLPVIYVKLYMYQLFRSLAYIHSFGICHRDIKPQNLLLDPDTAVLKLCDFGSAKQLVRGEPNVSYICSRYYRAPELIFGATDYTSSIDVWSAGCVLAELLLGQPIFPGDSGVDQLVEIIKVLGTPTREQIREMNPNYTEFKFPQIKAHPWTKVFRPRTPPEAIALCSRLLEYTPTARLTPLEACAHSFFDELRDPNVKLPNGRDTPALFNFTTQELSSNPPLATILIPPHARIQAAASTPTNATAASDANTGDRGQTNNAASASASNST
Mitogen-activated protein kinase 1 (Homo sapiens), sequence (P28482 whole entry): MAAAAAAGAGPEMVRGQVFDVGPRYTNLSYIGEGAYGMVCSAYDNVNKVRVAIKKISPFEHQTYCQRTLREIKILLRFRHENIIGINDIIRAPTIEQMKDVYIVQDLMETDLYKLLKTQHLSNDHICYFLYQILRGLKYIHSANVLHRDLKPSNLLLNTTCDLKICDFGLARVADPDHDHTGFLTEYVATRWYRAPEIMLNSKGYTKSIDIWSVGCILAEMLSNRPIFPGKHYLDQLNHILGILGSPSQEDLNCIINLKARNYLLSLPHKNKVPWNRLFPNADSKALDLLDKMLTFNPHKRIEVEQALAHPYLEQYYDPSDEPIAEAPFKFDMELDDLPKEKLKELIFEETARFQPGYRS
MAP kinase-activated protein kinase 5 (Homo sapiens), sequence (Q8IW41 whole entry): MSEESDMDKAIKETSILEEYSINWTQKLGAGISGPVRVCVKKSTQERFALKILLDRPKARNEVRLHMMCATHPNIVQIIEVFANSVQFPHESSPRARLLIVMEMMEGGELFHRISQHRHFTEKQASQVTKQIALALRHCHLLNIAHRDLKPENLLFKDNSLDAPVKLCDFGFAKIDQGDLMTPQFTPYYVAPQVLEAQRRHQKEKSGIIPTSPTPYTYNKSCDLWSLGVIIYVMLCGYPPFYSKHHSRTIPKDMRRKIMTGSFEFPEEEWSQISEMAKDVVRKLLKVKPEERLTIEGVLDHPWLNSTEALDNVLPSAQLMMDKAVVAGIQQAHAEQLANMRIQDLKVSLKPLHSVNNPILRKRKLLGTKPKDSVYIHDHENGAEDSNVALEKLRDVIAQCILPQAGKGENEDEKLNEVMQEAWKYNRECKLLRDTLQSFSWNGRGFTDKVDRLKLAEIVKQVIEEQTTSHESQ
Mitogen-activated protein kinase 11 (Homo sapiens), sequence (Q15759 whole entry): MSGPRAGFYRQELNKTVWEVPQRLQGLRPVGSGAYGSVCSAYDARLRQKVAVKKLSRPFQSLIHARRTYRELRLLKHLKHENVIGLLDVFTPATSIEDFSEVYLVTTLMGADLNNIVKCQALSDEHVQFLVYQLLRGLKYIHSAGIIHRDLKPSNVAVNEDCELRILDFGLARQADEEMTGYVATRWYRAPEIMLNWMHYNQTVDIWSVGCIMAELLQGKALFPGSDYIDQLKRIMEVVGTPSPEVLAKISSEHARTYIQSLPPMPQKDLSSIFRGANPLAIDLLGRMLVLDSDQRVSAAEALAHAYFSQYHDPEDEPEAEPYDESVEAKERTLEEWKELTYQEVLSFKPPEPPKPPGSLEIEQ
RAC-alpha serine/threonine-protein kinase (Homo sapiens), sequence (P31749 whole entry): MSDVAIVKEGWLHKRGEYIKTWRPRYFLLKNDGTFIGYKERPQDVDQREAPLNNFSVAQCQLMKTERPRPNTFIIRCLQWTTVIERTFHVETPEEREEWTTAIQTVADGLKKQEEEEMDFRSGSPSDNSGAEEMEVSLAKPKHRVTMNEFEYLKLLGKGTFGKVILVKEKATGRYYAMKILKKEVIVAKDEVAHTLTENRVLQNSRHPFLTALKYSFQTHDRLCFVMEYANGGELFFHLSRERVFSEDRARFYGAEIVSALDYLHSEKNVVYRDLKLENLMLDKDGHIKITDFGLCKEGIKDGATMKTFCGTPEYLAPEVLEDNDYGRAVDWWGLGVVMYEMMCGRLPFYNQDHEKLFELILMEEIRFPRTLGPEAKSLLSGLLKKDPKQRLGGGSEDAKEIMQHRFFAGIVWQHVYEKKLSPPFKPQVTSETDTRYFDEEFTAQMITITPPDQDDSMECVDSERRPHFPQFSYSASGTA
Tyrosine-protein kinase Lck (Homo sapiens), sequence (P06239 2-509 limits assumed): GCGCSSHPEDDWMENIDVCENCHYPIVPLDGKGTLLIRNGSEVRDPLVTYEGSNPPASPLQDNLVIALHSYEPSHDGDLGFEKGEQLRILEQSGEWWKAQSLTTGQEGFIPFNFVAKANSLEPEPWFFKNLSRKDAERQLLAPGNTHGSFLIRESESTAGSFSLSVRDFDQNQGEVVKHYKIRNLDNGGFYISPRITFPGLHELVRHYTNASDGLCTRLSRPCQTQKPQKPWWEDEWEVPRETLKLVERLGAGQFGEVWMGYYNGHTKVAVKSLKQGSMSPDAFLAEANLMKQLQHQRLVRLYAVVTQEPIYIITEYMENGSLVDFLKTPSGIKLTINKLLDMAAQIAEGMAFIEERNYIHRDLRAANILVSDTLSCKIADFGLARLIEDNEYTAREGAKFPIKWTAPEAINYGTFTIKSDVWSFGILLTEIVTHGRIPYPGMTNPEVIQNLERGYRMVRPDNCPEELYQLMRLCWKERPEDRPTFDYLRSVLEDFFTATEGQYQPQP
Dual specificity mitogen-activated protein kinase kinase 1 (Homo sapiens), sequence (Q02750 whole entry): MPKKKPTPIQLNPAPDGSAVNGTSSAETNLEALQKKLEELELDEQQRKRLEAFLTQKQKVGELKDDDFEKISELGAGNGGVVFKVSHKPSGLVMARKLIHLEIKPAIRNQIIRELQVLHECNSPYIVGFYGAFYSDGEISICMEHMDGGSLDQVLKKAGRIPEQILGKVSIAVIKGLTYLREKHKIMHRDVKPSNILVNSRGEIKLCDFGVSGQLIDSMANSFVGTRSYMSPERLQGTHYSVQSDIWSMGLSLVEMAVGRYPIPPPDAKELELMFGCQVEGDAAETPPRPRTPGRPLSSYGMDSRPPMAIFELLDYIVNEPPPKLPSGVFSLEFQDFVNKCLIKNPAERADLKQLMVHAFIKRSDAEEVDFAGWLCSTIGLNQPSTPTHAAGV
Mitogen-activated protein kinase 8 (Homo sapiens), sequence (P45983 whole entry): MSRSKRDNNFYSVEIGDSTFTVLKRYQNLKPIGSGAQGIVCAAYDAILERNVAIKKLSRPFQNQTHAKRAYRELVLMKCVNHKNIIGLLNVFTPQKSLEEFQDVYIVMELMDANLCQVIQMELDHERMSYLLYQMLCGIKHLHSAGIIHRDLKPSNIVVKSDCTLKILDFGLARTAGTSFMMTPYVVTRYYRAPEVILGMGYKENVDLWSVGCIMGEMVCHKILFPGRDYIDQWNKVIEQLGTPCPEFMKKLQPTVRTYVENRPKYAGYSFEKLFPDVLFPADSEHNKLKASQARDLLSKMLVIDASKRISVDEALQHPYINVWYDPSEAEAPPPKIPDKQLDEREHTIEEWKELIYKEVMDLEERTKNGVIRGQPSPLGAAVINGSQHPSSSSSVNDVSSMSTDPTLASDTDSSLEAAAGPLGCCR

Question: With Nc1nccc(-c2[nH]c(-c3ccccc3)nc2-c2ccc(Cl)c(O)c2)n1 as the molecule, how does the pKd [1] read?
Answer: 8.24

Question: Oc1cc(-c2[nH]c(-c3ccccc3)nc2-c2ccncn2)ccc1Cl was tested. Which pKd [1] did it give?
Answer: 7.85

Question: OCc1ccc(-c2[nH]c(-c3ccccc3)nc2-c2ccncc2)cc1Cl was tested. Which pKd [1] did it give?
Answer: 6.88

Question: OC1CCc2cc(-c3[nH]c(-c4ccccc4)nc3-c3ccncc3)ccc21 (stereo not given) was tested. Which pKd [1] did it give?
Answer: < 6.70

Question: How did the pIC50 [2] turn out when CC(C)(C)c1nc(-c2ccncc2)c(-c2ccc(Cl)c(O)c2)[nH]1 was run?
Answer: 7.92

Question: And the pKd [1]?
Answer: 8.70

Question: OCc1cccc(-c2[nH]c(-c3ccccc3)nc2-c2ccncc2)c1 was tested. Which pIC50 [2] did it give?
Answer: 5.80

Question: And the pKd [1]?
Answer: < 6.71

Question: O/N=C/c1ccc(-c2[nH]c(-c3ccccc3)nc2-c2ccncc2)cc1O was tested. Which pKd [1] did it give?
Answer: 7.57

Question: Oc1cc(-c2[nH]c(-c3ccccc3)nc2-c2cccnc2)ccc1Cl was tested. Which pKd [1] did it give?
Answer: < 6.70

Question: With C/C(=N\O)c1ccc(-c2[nH]c(-c3ccccc3)nc2-c2ccncc2)cc1 as the molecule, how does the pKd [1] read?
Answer: 7.96

Question: Oc1cc(-c2[nH]cnc2-c2ccncc2)ccc1Cl was tested. Which pIC50 [2] did it give?
Answer: 7.48

Question: And the pKd [1]?
Answer: 7.41

Question: With OCc1ccc(-c2[nH]c(-c3ccccc3)nc2-c2ccncc2)cc1 as the molecule, how does the pKd [1] read?
Answer: 7.15

Question: With Oc1cc(-c2[nH]c(-c3cccnc3)nc2-c2ccncc2)ccc1Cl as the molecule, how does the pIC50 [2] read?
Answer: 8.22

Question: How did the pKd [1] turn out when O/N=C1/CCCc2cc(-c3[nH]c(-c4ccccc4)nc3-c3ccncc3)ccc21 was run?
Answer: 7.77

Question: How did the pKd [1] turn out when O/N=C/c1ccc(-c2[nH]c(-c3ccccc3)nc2-c2ccncc2)cc1Cl was run?
Answer: 8.22

Question: Which inhibition [3] does the source give for CN(C)CCOc1ccc(-c2nc(-c3ccncc3)c(-c3ccc4c(c3)CC/C4=N\O)[nH]2)cc1 here?
Answer: 8%

Question: What about the inhibition [4] of the same molecule?
Answer: 25%

Question: What about the inhibition [5] of the same molecule?
Answer: 19%

Question: And the inhibition [6]?
Answer: 39%

Question: And the inhibition [7]?
Answer: 11%

Question: And the inhibition [8]?
Answer: 9%

Question: What about the inhibition [9] of the same molecule?
Answer: 14%

Question: What about the inhibition [10] of the same molecule?
Answer: 38%

Question: And the inhibition [11]?
Answer: 13%

Question: What about the inhibition [12] of the same molecule?
Answer: 8%

Question: And the inhibition [13]?
Answer: 3%

Question: And the inhibition [14]?
Answer: -2%

Question: What about the inhibition [15] of the same molecule?
Answer: 10%

Question: And the inhibition [16]?
Answer: 18%

Question: And the inhibition [17]?
Answer: 26%

Question: What about the inhibition [18] of the same molecule?
Answer: 9%

Question: And the inhibition [19]?
Answer: 10%

Question: What about the inhibition [20] of the same molecule?
Answer: 10%

Question: What about the inhibition [21] of the same molecule?
Answer: 17%

Question: What about the inhibition [22] of the same molecule?
Answer: 14%

Question: What about the inhibition [23] of the same molecule?
Answer: 9%

Question: With N=C(NO)c1ccc(-c2[nH]c(-c3ccccc3)nc2-c2ccncc2)cc1 as the molecule, how does the pKd [1] read?
Answer: 7.28

Question: Oc1cc(-c2[nH]c(-c3ccccc3)nc2-c2ccccc2)ccc1Cl was tested. Which pKd [1] did it give?
Answer: < 6.70

Question: How did the pIC50 [2] turn out when Oc1ccc(-c2nc(-c3ccccc3)[nH]c2-c2ccncc2)cc1 was run?
Answer: 6.47

Question: And the pKd [1]?
Answer: 6.50

Question: With O/N=C/c1ccc(-c2[nH]c(-c3ccccc3)nc2-c2ccncc2)cc1 as the molecule, how does the pKd [1] read?
Answer: 8.30

Question: Oc1cc(-c2[nH]c(-c3ccccc3)nc2-c2ccnnc2)ccc1Cl was tested. Which pKd [1] did it give?
Answer: 7.06

Question: How did the pIC50 [2] turn out when CC(C)(C)c1nc(-c2ccncc2)c(-c2ccc(F)cc2)[nH]1 was run?
Answer: 6.05

Question: What does the source list for Oc1cc(-c2[nH]c(-c3ccco3)nc2-c2ccncc2)ccc1Cl?
Answer: pIC50 [2]: 7.89; pKd [1]: 8.38

Question: What does the source list for CC(C)(CNC(=O)Nc1ccc(Cl)cc1)c1nc(-c2ccc(Cl)c(O)c2)c(-c2ccncc2)[nH]1?
Answer: pIC50 [2]: 7.89; pKd [1]: 7.68

Question: How did the inhibition [3] turn out when Oc1cc(-c2nc(-c3ccccc3)[nH]c2-c2ccncc2)ccc1Cl was run?
Answer: -3%

Question: And the inhibition [4]?
Answer: 83%

Question: What about the inhibition [5] of the same molecule?
Answer: 0%

Question: What about the inhibition [6] of the same molecule?
Answer: 88%

Question: What about the inhibition [7] of the same molecule?
Answer: -3%

Question: And the inhibition [8]?
Answer: -1%

Question: What about the inhibition [9] of the same molecule?
Answer: 5%

Question: What about the inhibition [10] of the same molecule?
Answer: 7%

Question: And the inhibition [11]?
Answer: 26%

Question: What about the inhibition [12] of the same molecule?
Answer: 44%

Question: And the inhibition [13]?
Answer: 17%

Question: And the inhibition [14]?
Answer: 12%

Question: And the inhibition [15]?
Answer: 2%

Question: What about the inhibition [16] of the same molecule?
Answer: 19%

Question: What about the inhibition [17] of the same molecule?
Answer: 3%

Question: And the inhibition [18]?
Answer: 81%

Question: And the inhibition [19]?
Answer: 5%

Question: And the inhibition [21]?
Answer: 2%

Question: What about the inhibition [22] of the same molecule?
Answer: 12%

Question: And the inhibition [23]?
Answer: 1%

Question: What about the pIC50 [2] of the same molecule?
Answer: 8.00

Question: What about the pKd [1] of the same molecule?
Answer: 8.62

Question: Oc1cccc(-c2nc(-c3ccccc3)[nH]c2-c2ccncc2)c1 was tested. Which pKd [1] did it give?
Answer: 8.10

Question: What does the source list for CN(C)CCCNC(=O)c1nc(-c2ccncc2)c(-c2ccc(Cl)c(O)c2)[nH]1?
Answer: pIC50 [2]: 7.40; pKd [1]: 7.62

Question: COc1cccc(-c2nc(-c3ccccc3)[nH]c2-c2ccncc2)c1 was tested. Which pKd [1] did it give?
Answer: < 6.71

Question: With CC(C)(CNS(C)(=O)=O)c1nc(-c2ccc(Cl)c(O)c2)c(-c2ccncc2)[nH]1 as the molecule, how does the pIC50 [2] read?
Answer: 7.85

Question: And the pKd [1]?
Answer: 8.00

Question: With OCc1ccc(-c2[nH]c(-c3ccccc3)nc2-c2ccncc2)cc1O as the molecule, how does the pKd [1] read?
Answer: 7.66

Question: CC(C)(CN)c1nc(-c2ccc(Cl)c(O)c2)c(-c2ccncc2)[nH]1 was tested. Which pIC50 [2] did it give?
Answer: 8.22

Question: What about the pKd [1] of the same molecule?
Answer: 8.32
